Test results: article PMC5218480 (PLoS ONE, 2017)

Tested on: MV-4-11 cells
Experiment: Gene expression microarray analysis (Affymetrix PrimeView) and GSEA
Format: cell-based, human
Parameters: RFU PODN (11730768_x_at) / Fold change /veh PODN (11730768_x_at) / RFU LINC00158 (11744669_a_at) / Fold change /veh LINC00158 (11744669_a_at) / RFU DUSP10 (11751237_a_at) / Fold change /veh DUSP10 (11751237_a_at) / RFU ID3 (11757404_x_at) / Fold change /veh ID3 (11757404_x_at) / RFU PLEKHG5 (11737974_s_at) / Fold change /veh PLEKHG5 (11737974_s_at) / RFU LRRC4B (11730491_at) / Fold change /veh LRRC4B (11730491_at) / RFU GIMAP4 (11747438_a_at) / Fold change /veh GIMAP4 (11747438_a_at) / RFU KRT8 (11758183_x_at) / Fold change /veh KRT8 (11758183_x_at) / RFU CNN1 (11734310_a_at) / Fold change /veh CNN1 (11734310_a_at) / RFU VPS37D (11726825_at) / Fold change /veh VPS37D (11726825_at) / RFU C10orf10 (11716522_x_at) / Fold change /veh C10orf10 (11716522_x_at) / RFU KIR2DL2 /// KIR2DL4 /// KIR2DL5A /// KIR2DL5B /// KIR2DS1 /// KIR2DS2 /// KIR2DS3 /// KIR2DS4 /// KIR3DL3 /// KIR3DL3 /// KIR3DS1 (11738374_at) / Fold change /veh KIR2DL2 /// KIR2DL4 /// KIR2DL5A /// KIR2DL5B /// KIR2DS1 /// KIR2DS2 /// KIR2DS3 /// KIR2DS4 /// KIR3DL3 /// KIR3DL3 /// KIR3DS1 (11738374_at) / RFU C1QL1 (11718748_at) / Fold change /veh C1QL1 (11718748_at) / RFU TMPRSS4 (11747572_a_at) / Fold change /veh TMPRSS4 (11747572_a_at) / RFU HAMP (11756126_x_at) / Fold change /veh HAMP (11756126_x_at) / RFU RNFT2 (11725882_a_at) / Fold change /veh RNFT2 (11725882_a_at) / RFU NR4A2 (11747474_a_at) / Fold change /veh NR4A2 (11747474_a_at) / RFU ABCC12 (11746883_a_at) / Fold change /veh ABCC12 (11746883_a_at) / RFU TMEM136 (11760407_x_at) / Fold change /veh TMEM136 (11760407_x_at) / RFU CLDN22 /// WWC2 (11732394_at) / Fold change /veh CLDN22 /// WWC2 (11732394_at) / RFU HLA-DPB1 (11760878_x_at) / Fold change /veh HLA-DPB1 (11760878_x_at) / RFU SPINT1 (11716480_a_at) / Fold change /veh SPINT1 (11716480_a_at) / RFU GAP43 (11754022_s_at) / Fold change /veh GAP43 (11754022_s_at) / RFU A4GNT (11735810_at) / Fold change /veh A4GNT (11735810_at) / RFU PRB3 (11715151_x_at) / Fold change /veh PRB3 (11715151_x_at) / RFU TUBB4B (11761932_at) / Fold change /veh TUBB4B (11761932_at) / RFU CAPN14 (11732068_a_at) / Fold change /veh CAPN14 (11732068_a_at) / RFU TMCC2 (11721928_a_at) / Fold change /veh TMCC2 (11721928_a_at) / RFU IRGQ (11745062_a_at) / Fold change /veh IRGQ (11745062_a_at) / RFU FAM174B (11720279_a_at) / Fold change /veh FAM174B (11720279_a_at) / RFU TMPRSS4 (11748680_a_at) / Fold change /veh TMPRSS4 (11748680_a_at) / RFU FAM212B (11763350_a_at) / Fold change /veh FAM212B (11763350_a_at) / RFU PLEKHG5 (11743358_a_at) / Fold change /veh PLEKHG5 (11743358_a_at) / RFU ZSCAN30 (11745921_a_at) / Fold change /veh ZSCAN30 (11745921_a_at) / RFU CMKLR1 (11741424_a_at) / Fold change /veh CMKLR1 (11741424_a_at) / RFU LOC101060620 /// MAPK8IP1 (11723275_at) / Fold change /veh LOC101060620 /// MAPK8IP1 (11723275_at) / RFU SPTSSB (11747773_x_at) / Fold change /veh SPTSSB (11747773_x_at) / RFU PRSS12 (11739890_at) / Fold change /veh PRSS12 (11739890_at) / RFU BIN1 (11741810_x_at) / Fold change /veh BIN1 (11741810_x_at) / RFU WNT11 (11732464_a_at) / Fold change /veh WNT11 (11732464_a_at) / RFU C10orf10 (11716521_a_at) / Fold change /veh C10orf10 (11716521_a_at) / RFU C5orf56 (11738089_at) / Fold change /veh C5orf56 (11738089_at) / RFU CYB561 (11721691_x_at) / Fold change /veh CYB561 (11721691_x_at) / RFU ANKRD19P (11752326_a_at) / Fold change /veh ANKRD19P (11752326_a_at) / RFU OR2T12 /// OR2T33 /// OR2T8 (11738714_s_at) / Fold change /veh OR2T12 /// OR2T33 /// OR2T8 (11738714_s_at) / RFU VCAN (11748164_a_at) / Fold change /veh VCAN (11748164_a_at) / RFU JSRP1 (11732532_at) / Fold change /veh JSRP1 (11732532_at) / RFU KRTAP10-11 (11738290_x_at) / Fold change /veh KRTAP10-11 (11738290_x_at) / RFU MYO3A (11730013_a_at) / Fold change /veh MYO3A (11730013_a_at) / RFU EBF3 (11725865_a_at) / Fold change /veh EBF3 (11725865_a_at) / RFU CAMK2N1 (11719241_x_at) / Fold change /veh CAMK2N1 (11719241_x_at) / RFU C5orf56 (11738088_a_at) / Fold change /veh C5orf56 (11738088_a_at) / RFU OLFML3 (11715873_a_at) / Fold change /veh OLFML3 (11715873_a_at) / RFU LOC100653217 /// NTM (11731650_a_at) / Fold change /veh LOC100653217 /// NTM (11731650_a_at) / RFU MAPK11 (11762145_a_at) / Fold change /veh MAPK11 (11762145_a_at) / RFU FIZ1 (11724087_x_at) / Fold change /veh FIZ1 (11724087_x_at) / RFU OASL (11726364_x_at) / Fold change /veh OASL (11726364_x_at) / RFU SOX15 (11748057_x_at) / Fold change /veh SOX15 (11748057_x_at) / RFU CD79A (11719716_a_at) / Fold change /veh CD79A (11719716_a_at) / RFU HIST1H1D (11736915_at) / Fold change /veh HIST1H1D (11736915_at) / RFU CASKIN2 (11723855_a_at) / Fold change /veh CASKIN2 (11723855_a_at) / RFU LOC730098 (11760151_x_at) / Fold change /veh LOC730098 (11760151_x_at) / RFU OR4N2 (11742367_at) / Fold change /veh OR4N2 (11742367_at) / RFU PRRT2 (11749266_a_at) / Fold change /veh PRRT2 (11749266_a_at) / RFU SNX32 (11753110_a_at) / Fold change /veh SNX32 (11753110_a_at) / RFU CDHR5 (11726645_a_at) / Fold change /veh CDHR5 (11726645_a_at) / RFU RCAN1 (11760418_a_at) / Fold change /veh RCAN1 (11760418_a_at) / RFU FAM167A (11723789_a_at) / Fold change /veh FAM167A (11723789_a_at) / RFU FAM26E (11764081_at) / Fold change /veh FAM26E (11764081_at) / RFU ISYNA1 (11749810_s_at) / Fold change /veh ISYNA1 (11749810_s_at) / RFU ACY1 (11761880_at) / Fold change /veh ACY1 (11761880_at) / RFU 11764098_at / Fold change /veh 11764098_at / RFU SAMD14 (11745864_x_at) / Fold change /veh SAMD14 (11745864_x_at) / RFU NPB (11741838_a_at) / Fold change /veh NPB (11741838_a_at) / RFU TMPRSS6 (11731388_a_at) / Fold change /veh TMPRSS6 (11731388_a_at) / RFU KRTAP10-2 (11738614_at) / Fold change /veh KRTAP10-2 (11738614_at) / RFU ARHGAP8 /// PRR5-ARHGAP8 (11727945_x_at) / Fold change /veh ARHGAP8 /// PRR5-ARHGAP8 (11727945_x_at) / RFU KRTAP5-7 /// NADSYN1 (11734609_at) / Fold change /veh KRTAP5-7 /// NADSYN1 (11734609_at) / RFU RASL12 (11751679_a_at) / Fold change /veh RASL12 (11751679_a_at) / RFU CDKN2B (11736163_a_at) / Fold change /veh CDKN2B (11736163_a_at) / RFU PRF1 (11729649_at) / Fold change /veh PRF1 (11729649_at) / RFU, ZNF638 /// ZNF638-IT1 / Fold change vs veh, ZNF638 /// ZNF638-IT1 / RFU, PANK3 / Fold change vs veh, PANK3 / RFU, SH3YL1 / Fold change vs veh, SH3YL1 / RFU, ZEB2 / Fold change vs veh, ZEB2 / RFU, NRIP1 / Fold change vs veh, NRIP1 / RFU, PTTG1IP / Fold change vs veh, PTTG1IP / RFU, CAPN2 / Fold change vs veh, CAPN2 / RFU, MED14 / Fold change vs veh, MED14 / RFU, SNORA58 / Fold change vs veh, SNORA58 / RFU, C1orf63 / Fold change vs veh, C1orf63 / RFU, LRRFIP1 / Fold change vs veh, LRRFIP1 / RFU, NDUFAF7 / Fold change vs veh, NDUFAF7 / RFU, SLC12A2 / Fold change vs veh, SLC12A2 / RFU, IBTK / Fold change vs veh, IBTK / RFU, ESF1 / Fold change vs veh, ESF1 / Fold change vs veh, TMEM50B / RFU, TAOK1 / Fold change vs veh, TAOK1 / RFU, ACBD3 / Fold change vs veh, ACBD3 / RFU, TMA16 / Fold change vs veh, TMA16 / RFU, RWDD3 / Fold change vs veh, RWDD3 / RFU, BCAT1 / Fold change vs veh, BCAT1 / RFU, EDEM3 / Fold change vs veh, EDEM3 / RFU, TMEM33 / Fold change vs veh, TMEM33 / RFU, WDR75 / Fold change vs veh, WDR75 / RFU, AHCTF1 / Fold change vs veh, AHCTF1 / RFU, TFRC / Fold change vs veh, TFRC / RFU, ZDHHC17 / Fold change vs veh, ZDHHC17 / RFU, NOM1 / Fold change vs veh, NOM1 / RFU, ARL8B / Fold change vs veh, ARL8B / RFU, ZBTB11 / Fold change vs veh, ZBTB11 / RFU, TAMM41 / Fold change vs veh, TAMM41 / RFU, KIAA1704 /// LOC100996395 / Fold change vs veh, KIAA1704 /// LOC100996395 / RFU, ING1 / Fold change vs veh, ING1 / RFU, TRMT61B / Fold change vs veh, TRMT61B / RFU, FUBP3 / Fold change vs veh, FUBP3 / RFU, TP53 / Fold change vs veh, TP53 / RFU, TNKS2 / Fold change vs veh, TNKS2 / RFU, ZFP14 / Fold change vs veh, ZFP14 / RFU, ACTR2 / Fold change vs veh, ACTR2 / RFU, PPP3R1 / Fold change vs veh, PPP3R1 / RFU, PIK3R1 / Fold change vs veh, PIK3R1 / RFU, HNRNPA1 / Fold change vs veh, HNRNPA1 / RFU, RNF170 / Fold change vs veh, RNF170 / RFU, ZNF28 / Fold change vs veh, ZNF28 / RFU, RNGTT / Fold change vs veh, RNGTT / RFU, OGT / Fold change vs veh, OGT / RFU, BRD1 / Fold change vs veh, BRD1 / RFU, MARS / Fold change vs veh, MARS / RFU, ZNF655 / Fold change vs veh, ZNF655 / RFU, FAHD1 / Fold change vs veh, FAHD1 / RFU, BDP1 / Fold change vs veh, BDP1 / RFU, LRRCC1 / Fold change vs veh, LRRCC1 / RFU, ARID1A / Fold change vs veh, ARID1A / RFU, ZNF146 / Fold change vs veh, ZNF146 / RFU, ZNF330 / Fold change vs veh, ZNF330 / RFU, GPN3 / Fold change vs veh, GPN3 / RFU, C9orf123 / Fold change vs veh, C9orf123 / RFU, N4BP2L2 / Fold change vs veh, N4BP2L2 / RFU, ARFIP1 / Fold change vs veh, ARFIP1 / RFU, FAM179B / Fold change vs veh, FAM179B / RFU, BCL10 / Fold change vs veh, BCL10 / RFU, UHRF1BP1L / Fold change vs veh, UHRF1BP1L / RFU, BET1 / Fold change vs veh, BET1 / RFU, CNOT2 / Fold change vs veh, CNOT2 / RFU, ZNF268 / Fold change vs veh, ZNF268 / Fold change vs veh, ZNF507 / RFU, DGCR2 / Fold change vs veh, DGCR2 / RFU, WDSUB1 / Fold change vs veh, WDSUB1 / Fold change vs veh, HSP90B1 /// MIR3652 / RFU, ADSS / Fold change vs veh, ADSS / RFU, GK / Fold change vs veh, GK / RFU, ZNF148 / Fold change vs veh, ZNF148 / RFU, TAF9 / Fold change vs veh, TAF9 / RFU, SLC1A5 / Fold change vs veh, SLC1A5 / RFU, SLMO2 / Fold change vs veh, SLMO2 / RFU, ABCC4 / Fold change vs veh, ABCC4 / RFU, LOC101060439 /// RAP1B / Fold change vs veh, LOC101060439 /// RAP1B / RFU, RFX7 / Fold change vs veh, RFX7 / RFU, GTPBP10 / Fold change vs veh, GTPBP10 / RFU, CNEP1R1 / Fold change vs veh, CNEP1R1 / RFU, BIVM-ERCC5 /// ERCC5 / Fold change vs veh, BIVM-ERCC5 /// ERCC5 / RFU, ILF3 / Fold change vs veh, ILF3 / RFU 11762660_at / Fold change /veh 11762660_at / RFU VCAN (11757783_s_at) / Fold change /veh VCAN (11757783_s_at) / RFU DDX43 (11728927_at) / Fold change /veh DDX43 (11728927_at) / RFU KRT8 (11758188_x_at) / Fold change /veh KRT8 (11758188_x_at) / RFU NKD1 (11759106_at) / Fold change /veh NKD1 (11759106_at) / RFU SRD5A1 (11742802_a_at) / Fold change /veh SRD5A1 (11742802_a_at) / RFU TPSAB1 /// TPSB2 (11721975_s_at) / Fold change /veh TPSAB1 /// TPSB2 (11721975_s_at) / RFU GSTM3 (11746129_a_at) / Fold change /veh GSTM3 (11746129_a_at) / RFU IL23R (11737362_x_at) / Fold change /veh IL23R (11737362_x_at) / RFU TMEM51 (11727254_a_at) / Fold change /veh TMEM51 (11727254_a_at) / RFU PIWIL2 (11732686_x_at) / Fold change /veh PIWIL2 (11732686_x_at) / RFU ORM1 (11744905_x_at) / Fold change /veh ORM1 (11744905_x_at) / RFU CCDC152 (11743942_at) / Fold change /veh CCDC152 (11743942_at) / RFU ECM1 (11717891_a_at) / Fold change /veh ECM1 (11717891_a_at) / RFU IL23R (11748794_a_at) / Fold change /veh IL23R (11748794_a_at) / RFU TNFAIP8L3 (11732012_x_at) / Fold change /veh TNFAIP8L3 (11732012_x_at) / RFU MBOAT4 (11741988_at) / Fold change /veh MBOAT4 (11741988_at) / RFU 11764193_at / Fold change /veh 11764193_at / RFU TMEM53 (11763286_at) / Fold change /veh TMEM53 (11763286_at) / RFU MAGEB2 (11727129_at) / Fold change /veh MAGEB2 (11727129_at) / RFU TMEM200A (11744735_a_at) / Fold change /veh TMEM200A (11744735_a_at) / RFU CCDC152 (11751479_a_at) / Fold change /veh CCDC152 (11751479_a_at) / RFU FAM211A (11726209_a_at) / Fold change /veh FAM211A (11726209_a_at) / RFU RGS16 (11746705_a_at) / Fold change /veh RGS16 (11746705_a_at) / RFU VCAN (11755009_s_at) / Fold change /veh VCAN (11755009_s_at) / RFU RHOB (11743442_s_at) / Fold change /veh RHOB (11743442_s_at) / RFU RGS16 (11720943_a_at) / Fold change /veh RGS16 (11720943_a_at) / RFU RGS16 (11720944_at) / Fold change /veh RGS16 (11720944_at) / RFU, VPS4B / Fold change vs veh, VPS4B / RFU, CREB1 / Fold change vs veh, CREB1 / RFU, DNAJC13 / Fold change vs veh, DNAJC13 / RFU, GNAQ / Fold change vs veh, GNAQ / RFU, CDK5R1 / Fold change vs veh, CDK5R1 / RFU, ZRANB3 / Fold change vs veh, ZRANB3 / RFU, CUL4A / Fold change vs veh, CUL4A / RFU, CCNY / Fold change vs veh, CCNY / RFU, UFL1 / Fold change vs veh, UFL1 / RFU, COG3 / Fold change vs veh, COG3 / RFU, DIAPH2 / Fold change vs veh, DIAPH2 / RFU, SKA2 / Fold change vs veh, SKA2 / RFU, AFF3 / Fold change vs veh, AFF3 / RFU, LMF1 / Fold change vs veh, LMF1 / RFU, IPO11 / Fold change vs veh, IPO11 / RFU, DFFB / Fold change vs veh, DFFB / RFU, FOXP1 / Fold change vs veh, FOXP1 / RFU, CARD8 / Fold change vs veh, CARD8 / RFU, STRN3 / Fold change vs veh, STRN3 / RFU, ADK / Fold change vs veh, ADK / RFU, RASSF2 / Fold change vs veh, RASSF2 / RFU, WIPF1 / Fold change vs veh, WIPF1 / RFU, LARP1B / Fold change vs veh, LARP1B / RFU, RASA1 / Fold change vs veh, RASA1 / RFU, RB1 / Fold change vs veh, RB1 / RFU, PPFIA1 / Fold change vs veh, PPFIA1 / RFU, MAT2A / Fold change vs veh, MAT2A / RFU, CCT5 / Fold change vs veh, CCT5 / RFU, WDR92 / Fold change vs veh, WDR92 / RFU, CUX1 / Fold change vs veh, CUX1 / RFU, TTC7A / Fold change vs veh, TTC7A / RFU, TMEM135 / Fold change vs veh, TMEM135 / RFU, DEPTOR / Fold change vs veh, DEPTOR / RFU, CPM / Fold change vs veh, CPM / RFU, DNAJB6 / Fold change vs veh, DNAJB6 / RFU, CACNA2D3 / Fold change vs veh, CACNA2D3 / RFU, DTX4 / Fold change vs veh, DTX4 / RFU, TFCP2 / Fold change vs veh, TFCP2 / RFU, GMCL1 /// GMCL1P1 / Fold change vs veh, GMCL1 /// GMCL1P1 / RFU, AEBP2 / Fold change vs veh, AEBP2 / RFU, SNHG1 /// SNORD22 /// SNORD25 /// SNORD26 /// SNORD27 /// SNORD28 /// SNORD29 /// SNORD31 / Fold change vs veh, SNHG1 /// SNORD22 /// SNORD25 /// SNORD26 /// SNORD27 /// SNORD28 /// SNORD29 /// SNORD31 / Fold change (Aza/veh), C12orf56 (ProbeSet 11735607_a_at) / Fold change (ACY-1035/veh), C12orf56 (ProbeSet 11735607_a_at) / Fold change (Aza/veh), FGFR1OP (ProbeSet 11751329_s_at) / Fold change (ACY-1035/veh), FGFR1OP (ProbeSet 11751329_s_at) / Fold change (Aza/veh), VPS36 (ProbeSet 11739960_a_at) / Fold change (ACY-1035/veh), VPS36 (ProbeSet 11739960_a_at) / RFU SYPL1 (11715823_x_at) / Fold change /veh SYPL1 (11715823_x_at) / RFU IGFBP7 (11715501_s_at) / Fold change /veh IGFBP7 (11715501_s_at) / RFU REEP3 (11722064_at) / Fold change /veh REEP3 (11722064_at) / RFU IGLL1 (11728026_x_at) / Fold change /veh IGLL1 (11728026_x_at): dose or concentration left out as unconfirmed
Conditions: ProbeSet 11747889_x_at; LIST B

Nc1ccc(-c2cccs2)cc1NC(=O)c1ccc2c(c1)cc(C1CC1)n2CCN1CCOCC1 [ACY-1035]
RFU, SH3YL1: 65.52 RFU
